In patent US20070190068A1, “uPAR-binding molecule-drug conjugates and uses thereof” (priority 2005, published 2007):

Tested on: MDA-231 GFP tumors
Assay: Human breast carcinoma MDA-MB-231 GFP xenograft in nude mice (tumor volume)
Format: in vivo, BALB/c (nu/nu) mice
Conditions: week 14
From the text: FIG. 5. Preliminary dose defining study. Effect of anti-human uPAR IgG (Mab 3936), doxorubicin, Mab 3936-Doxorubicin conjugate on xenograft human breast cancer tumor model in nude mice (MDA-231 GFP tumors). Tumor volume (mm^3) from week 8 to week 11 post tumor cell inoculation were compared. Bar graph from left to right: animals received control serum, doxorubicin via intravenous (DOX I.V.), doxorubicin via […] (DOX I.P.), Mab 3936 (3936) or Mab 3936-doxorubicin conjugate (3936+DOX) (2 mg/animal).
FIG. 6. Effect of anti-human uPAR IgG (Mab 3936), doxorubicin, Mab 3936-doxorubicin conjugate on xenograft human breast cancer tumor model in nude mice (MDA-231 GFP tumors). Tumor volume (mm^3) from week 5 to week 15 post tumor cell inoculation were compared. Bar graph from left to right: animals received control serum, doxorubicin via intravenous, Mab 3936, doxorubicin via […], and Mab 3936-doxorubicin conjugate.
FIG. 7. […]
For xenograft studies, 4 to 6 weeks old BALB/c (nu/nu) female mice were obtained from Charles River Inc. The mice weighed an average of 20 grams. […] The tumor mass was measured in two dimensions with calipers, twice a week.
Throughout the course of these studies, all control and experimental mice were monitored for any noticeable side effects. […]

COc1cccc2c1C(=O)c1c(O)c3c(c(O)c1C2=O)C[C@@](O)(C(=O)CO)C[C@@H]3O[C@H]1C[C@H](N)[C@H](O)[C@H](C)O1 [doxorubicin]
tumor volume: 330 mm^3
